This experiment deals with T1, Human plasma kallikrein (PK) (Homo sapiens, UniProt P03952).
T1 construct: purchased Haemtech Technologies (Essex Junction, Vt.)
The experiment can be described thus: Inhibition of human plasma kallikrein amidolytic activity (H-D-Pro-Phe-Arg-pNA cleavage, A405). The format is biochemical. The protocol: Human plasma kallikrein (PK) was obtained from Haemtech Technologies (Essex Junction, Vt.). The enzymatic activity of PK was assayed using the synthetic peptide substrate H-D-Pro-Phe-Arg-pNA (Bachem, Inc., Switzerland) with the cleavage of the substrate by the enzyme resulting in an increase in A405, measured using a Molecular Devices Vmax Kinetic Microplate Reader. The uninhibited (control) activity of PK was determined by adding 190 μl of PK solution (1 nM in 0.05 M HEPES, pH 7.5, 0.01% Triton X-100) to 10 μl of H-D-Pro-Phe-Arg-pNA (2 mM in DMSO) in individual microtiter plate wells, mixed immediately by shaking, and the rate of increase in A405 determined over 120-180 sec. In parallel, compounds of the present invention were mixed in separate wells with the synthetic substrate to attain final concentrations of between 0.01-10 μM in the final 200 μl reaction mixture, and the reaction initiated by the addition of 190 μl of the PK solution.
The highest concentration of either compound tested was 10 μM.

The mark [1] stands for this setting: Table 4 inhibition constants, read-out: Ki.
The mark [2] stands for this setting: apparent inhibition constant, 1 nM PK, pH 7.5, read-out: PK Kiapp.

Read-outs that look alike come from different tables or passages of the source.

T1 sequence (P03952 391-638 limits assumed): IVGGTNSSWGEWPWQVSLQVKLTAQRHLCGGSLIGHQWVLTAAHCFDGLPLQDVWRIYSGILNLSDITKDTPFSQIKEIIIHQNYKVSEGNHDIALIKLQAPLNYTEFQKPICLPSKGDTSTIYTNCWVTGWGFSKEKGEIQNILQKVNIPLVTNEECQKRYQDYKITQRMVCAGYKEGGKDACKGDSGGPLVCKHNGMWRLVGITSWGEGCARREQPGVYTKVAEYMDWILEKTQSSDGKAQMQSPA
T1 sequence (P03952 20-390 partner limits assumed): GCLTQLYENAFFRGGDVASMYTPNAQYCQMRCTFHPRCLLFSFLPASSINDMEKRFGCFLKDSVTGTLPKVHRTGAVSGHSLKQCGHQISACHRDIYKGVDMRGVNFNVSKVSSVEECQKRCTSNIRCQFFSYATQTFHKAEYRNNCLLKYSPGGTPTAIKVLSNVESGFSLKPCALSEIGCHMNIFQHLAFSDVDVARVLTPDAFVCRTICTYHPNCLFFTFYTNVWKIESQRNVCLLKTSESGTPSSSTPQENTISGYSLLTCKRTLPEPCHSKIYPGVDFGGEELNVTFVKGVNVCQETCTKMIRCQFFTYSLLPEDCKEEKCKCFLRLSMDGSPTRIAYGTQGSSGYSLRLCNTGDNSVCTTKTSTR

Regarding `N=C(N)c1ccc(CNC(=O)c2cn(S(=O)(=O)c3ccccc3)c3ccccc23)cc1` (single isomer, unassigned) [compound 2], the Ki under setting [1] came out at 30 nM.

For the compound `N=C(N)c1ccc(CNC(=O)c2cnn(Cc3ccccc3)c2)cc1` (single isomer, unassigned) [compound 3], the Ki under setting [1] amounted to 150 nM.

With `Cc1nc(-c2ccccc2)sc1C(=O)NCc1ccc(C(=N)N)cc1` [ASP-373, 4-Methyl-2-phenyl-thiazole-5-carboxylic acid 4-carbamimidoyl-benzylamide], under setting [2], the Ki is 8870 nM. `N=C(N)c1ccc(CNC(=O)c2cn(Cc3ccccc3)c3ccccc23)cc1` [ASP-381, 1-Benzyl-1H-indole-3-carboxylic acid 4-carbamimidoyl-benzylamide]: the Ki (PK Kiapp, apparent inhibition constant, 1 nM PK, pH 7.5) is 240 nM. Regarding `N=C(N)c1ccc(CNC(=O)c2cn(S(=O)(=O)c3ccccc3)c3ccccc23)cc1` [ASP-383, 1-Benzenesulfonyl-1H-indole-3-carboxylic acid 4-carbamimidoyl-benzylamide], the Ki under setting [2] was 170 nM. The same measure, in the same setting: the value for `N=C(N)c1ccc(CNC(=O)c2cnn(-c3ccccc3)c2)cc1` [ASP-445, 1-Phenyl-1H-pyrazole-4-carboxylic acid 4-carbamimidoyl-benzylamide] was 1430 nM. Same read-out and setting: for `Cc1oc(-c2ccccc2)cc1C(=O)NCc1ccc(C(=N)N)cc1` [ASP-466, 2-Methyl-5-phenyl-furan-3-carboxylic acid 4-carbamimidoyl-benzylamide] the value was 1290 nM. Same read-out and setting: for `N=C(N)c1ccc(CNC(=O)c2cc3ccccc3[nH]2)cc1` [ASP-484, 1H-Indole-2-carboxylic acid 4-carbamimidoyl-benzylamide] the value was 2520 nM. As for `N=C(N)c1ccc(CNC(=O)c2cc3ccccc3o2)cc1` [ASP-485, Benzofuran-2-carboxylic acid 4-carbamimidoyl-benzylamide], the Ki under setting [2] is 870 nM.

As to `N=C(N)c1ccc(CNC(=O)c2cc3ccccc3s2)cc1` [ASP-486, Benzo[b]thiophene-2-carboxylic acid 4-carbamimidoyl-benzylamide], under setting [2], the Ki is 1570 nM. The same measure, in the same setting: the value for `N=C(N)c1ccc(CNC(=O)c2csc3ccccc23)cc1` [ASP-491, Benzo[b]thiophene-3-carboxylic acid 4-carbamimidoyl-benzylamide] was 2110 nM; that for `N=C(N)c1ccc(CNC(=O)c2c[nH]c3ccccc23)cc1` [ASP-493, 1H-Indole-3-carboxylic acid 4-carbamimidoyl-benzylamide] was 2450 nM; that for `N=C(N)c1ccc(CNC(=O)c2ccc(-c3ccccc3)s2)cc1` [ASP-523, 5-Phenyl-thiophene-2-carboxylic acid 4-carbamimidoyl-benzylamide] was 7660 nM.

Consider `N=C(N)c1ccc(CNC(=O)c2ccc(-c3ccccn3)s2)cc1` [ASP-525, 5-Pyridin-2-yl-thiophene-2-carboxylic acid 4-carbamimidoyl-benzylamide], for which, under setting [2], the Ki was determined as 20600 nM. On the same count and under the same terms, the value for `Cc1c(C(=O)NCc2ccc(C(=N)N)cc2)nnn1Cc1ccc(Br)cc1` [ASP-558, 1-(4-Bromo-benzyl)-5-methyl-1H-1,2,3-triazole-4-carboxylic acid 4-carbamimidoyl-benzylamide] was 2620 nM; that for `N=C(N)c1ccc(CNC(=O)c2cn(Cc3ccc(F)cc3)nn2)cc1` [ASP-559, 1-(4-Fluoro-benzyl)-1H-1,2,3-triazole-4-carboxylic acid 4-carbamimidoyl-benzylamide] was 8090 nM; that for `Cc1cc(C(=O)NCc2ccc(C(=N)N)cc2)c(C)n1-c1ccccc1` [ASP-576, 2,5-Dimethyl-1-phenyl-1H-pyrrole-3-carboxylic acid 4-carbamimidoyl-benzylamide] was 40 nM. `Cc1nn(Cc2ccccc2)c(C)c1C(=O)NCc1ccc(C(=N)N)cc1` [ASP-577, 1-Benzyl-3,5-dimethyl-1H-pyrazole-4-carboxylic acid 4-carbamimidoyl-benzylamide]: the Ki under setting [2] was 1130 nM.

The values are drawn from patent publication US20080038276A1, “INHIBITORS OF PLASMA KALLIKREIN” (Activesite Pharmaceuticals, Inc., priority 2006, published 2008).
